Where a name gives a salt, the structure may show the parent alone.

15 molecules from patent publication US8158340B2, “Methods for detecting conformational changes in bioentities” (Corning Incorporated, priority 2005, dated 2012) can be followed below.

The target in experiment [1] is T1, H.S.A. (Homo sapiens, UniProt P02768). Nature of the experiment: Tryptic digestion of H.S.A. after chemical modification. The class given is biochemical. To be noted: 5 minute treatment of 2,3-butanedione; FIG. 20. From the text:
In this type of assay, the digestion signal can be used as a means for screening large compound libraries for modulators of digestion (i.e. inhibitors or enhancers). The digestion inhibitors could be directed against-any lytic agent including but not limited to peptidases (as in the Caspase assay), proteases, nucleases, glucuronidase, glucosidase, lipases and the like. The assay is capable of detecting small molecule inhibitors of digestion of any molecular weight size. […] The extent to which an inhibitor can prevent digestion is assayed. […] The bar in FIG. 20, labeled 2,3-butanedione represents the net tryptic digestion of H.S.A. after a 5 minute treatment of 2,3-butanedione. The chemical 2,3-butanedione is an effective chemical modifier of amino acids such as lysine or arginine and is known in the art as an effective inhibitor of trypsin digestion via target modification.

Experiment [2] deals with T1, H.S.A. In words: Percent crosslinking of H.S.A. with glutaraldehyde in presence of denaturants. The class given is biochemical. Particulars: as the concentration of denaturing agent increased; FIGS. 7-10.
Description: The fractional amount of chemical crosslinking was measured by taking the ratio of added crosslinker attached to the protein relative to amount of initial protein on the sensor. Initially, protein is immobilized and washed on the Epic™ sensor and then measured for amount of immobilized protein. The protein is exposed to glutaraldehyde with a specified solution condition. The mass change that resulted from crosslinking is recorded again on the Epic™ system. The ratio of picometer change by crosslinker (due to mass increase) to mass of protein immobilized (as measured by initial change in picometer due to protein immobilization) is referred to as the fractional amount of crosslinking (% XL or % crosslinking), which is depicted in FIG. 6. This mass change by chemical crosslinking provides a “snap shot” of the conformational state accessible to cross linker.
As a protein or bioentity is denatured it should unfold and thereby increase the number of available sites for crosslinking.
The next experiment concerns the target T2, Calmodulin (CAM) (Homo sapiens, UniProt P0DP23).
T2 construct: purchased Upstate cell signaling solutions 14-368
In words: Surrogate binding: calcium additions to immobilized calmodulin on Epic biosensor. Particulars: nine additions of 200 μM calcium chloride. From the text:
In this assay, the detection of macromolecular events whose mass changes are below detection due to sparingly low refractive index changes on a biosensor are consequentially assayed through surrogate associations that are then detectable by refractive index changes (i.e., any event (ion or not) which conveys a signature through association and is assayable on a biosensor).
Calmodulin (CAM) is a classic calcium binding protein. It binds four calcium ions per protein. At saturation, four ligands at a mass of 40 Daltons equals 160 Dalton is produced. This mass is expected to be below normal direct bind detection. However, upon calcium binding CAM undergoes a dramatic conformational transition. The physical changes by CAM play a crucial role in the functioning of this molecule in vivo. Fluorescent probes that sense hydrophobic transitions have been used for more than a decade. […] Calmodulin was chosen as the model system for the concept of surrogate direct binding because the binding of calcium to this protein should not be readily detectable on a biosensor (4×40 Dalton for calcium=160 Da).
CAM was ordered through Upstate cell signaling solutions (Cat #14-368). […] Yet, when a hydrophobic probe is employed (a surrogate direct bind probe), a calcium modulation interaction is detected.

A further experiment concerns the target equine cytochrome C (Equus caballus, UniProt P00004). In words: Catalytic digestion: trypsin digestion of immobilized cytochrome C with degrading catalyst. The class given is biochemical. To be noted: 15 units of trypsin per well, FIG. 2. On the procedure:
Chem. Soc., 2004, 126:12833-12842 and tested as a degrading catalyst. On the Epic™ System, equine cytochrome C was chemically immobilized onto the EMA surface. The comparative trypsin digestion on the Epic™ system was measured. […] In these assays, 15 units of trypsin were used in each well. No titration was done for the enzyme, the cytochrome protein or the copper II porphyrin.

Experiment [3] addresses T1, H.S.A. Nature of the experiment: Conformational mode locking: trypsin digestion of H.S.A. after glutaraldehyde crosslinking. Format: biochemical. To be noted: 10% glutaraldehyde in 0.1 M phosphate pH 7. An excerpt:
The use of covalent chemical crosslinking as a way of assaying conformational states or transitions of bioentities was investigated. H.S.A. was immobilized on an Epic™ sensor. The protein was crosslinked with glutaraldehyde under a variety of conditions (FIG. 5). Glutaraldehyde is a small molecular weight organic chemical (100 Dalton). It can undergo a variety of chemical crosslinking events with either itself or several amino acids. For this study, 10% glutaraldehyde in 0.1 M phosphate pH 7 was used. This was done to avoid the possibility of polymeric glut from forming. The amount of protein immobilized on the surface was also measured as well as the amount of chemical crosslinking and trypsin digestion. […] This effect was expected since crosslinking should affix the protein to the surface and render mass loss incapable. This finding should permit the ability to immobilize affinity capture molecules like antibodies and streptavidin and after crosslinking prevent their digestion. These crosslinked capture structures can then be used to specifically orient their antigens for antigen specific digestion.

Experiment [4] deals with trypsin. In words: Trypsin digestion of standard fluorescent substrate BZIP plus warfarin (specificity control). The class given is biochemical. An excerpt:
It is contemplated that any conformationally altered ligand-bioentity complex can be further confirmed or characterized through secondary analysis such as peptide digest mapping, deuterium exchange studies, Michaelis-Menten kinetic studies, circular dichroism, intrinsic fluorescence analysis, competition studies with fluorescence polarization assays and the like. In addition, the effects that a ligand or putative ligand may have on the digesting agent may be analyzed using a known non-binding agent or through kinetic analysis using fluorescent assays or absorbance assays. For example, rhodamine 110, bis-(CBZ-L-isoleucyl-L-prolyl-L-arginine amide), dihydrochloride (BZiPAR, Invitrogen Inc.) may be used in fluorescence assays with trypsin and a putative ligand. Similarly, Nα-benzoyl-L-arginine ethyl ester hydrochloride (BAEE) may also be used for spectrophotometric assays with trypsin and other proteases.
(§1) The data indicates several properties.

The next experiment has as its system rabbit IgG. Nature of the experiment: Trypsin digestion of rabbit IgG plus warfarin (specificity control). Format: biochemical. To be noted: generic protein control.
Description: as §1

The next experiment concerns trypsin or chymotrypsin. Nature of the experiment: Conformational assay: label-independent digestion of immobilized albumins. Format: biochemical. To be noted: relative to normal BSA; FIGS. 3 and 4. As for the experimental part:
In this assay, it was determined whether or not a label-independent detection assay can distinguish between different albumins by digestion with either trypsin or chymotrypsin on the Epic™ system.

Experiment [5] has as its system trypsin. In words: Comparative trypsin digestion of myoglobin, apomyoglobin and heme-inserted apomyoglobin on Epic system. The class given is biochemical. Particulars: approximately 23 minutes; for trypsin digestion (refractive index change): 15 units of trypsin in 1× PBS, FIGS. 18 and 19. On the procedure: The heme inserted wells as well as the apoprotein and myoglobin wells were digested using 15 units of trypsin in 1× PBS. The digestion process was allowed to proceed for approximately 23 minutes with continuous monitoring of refractive index changes on the LID system. The hierarchy of digestion followed the following order; myoglobin (−250 pm)<apomyoglobin with heme (−350 pm)<apomyoglobin (−500 pm) (FIGS. 18 and 19). […] The difference between the native myoglobin and the heme inserted apomyoglobin may be a result of slight denaturation effects that were introduced in the preparation of the apomyoglobin protein.

T1 sequence (P02768 25-609): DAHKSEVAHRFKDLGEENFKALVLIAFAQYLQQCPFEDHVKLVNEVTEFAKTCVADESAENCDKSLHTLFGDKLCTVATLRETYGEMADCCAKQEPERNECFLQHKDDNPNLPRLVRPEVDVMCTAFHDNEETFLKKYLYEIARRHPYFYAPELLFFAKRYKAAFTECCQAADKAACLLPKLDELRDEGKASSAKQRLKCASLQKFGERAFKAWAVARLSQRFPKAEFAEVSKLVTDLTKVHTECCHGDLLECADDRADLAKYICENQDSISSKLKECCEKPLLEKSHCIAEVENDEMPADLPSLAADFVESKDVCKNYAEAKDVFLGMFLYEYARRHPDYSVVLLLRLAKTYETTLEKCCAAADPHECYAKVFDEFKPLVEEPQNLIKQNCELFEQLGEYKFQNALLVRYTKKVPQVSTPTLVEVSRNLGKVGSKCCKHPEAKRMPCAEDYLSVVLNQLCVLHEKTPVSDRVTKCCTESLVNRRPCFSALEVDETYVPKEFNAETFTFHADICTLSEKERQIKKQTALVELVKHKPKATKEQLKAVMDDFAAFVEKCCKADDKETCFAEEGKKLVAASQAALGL
Sequence of equine cytochrome C (P00004 whole entry): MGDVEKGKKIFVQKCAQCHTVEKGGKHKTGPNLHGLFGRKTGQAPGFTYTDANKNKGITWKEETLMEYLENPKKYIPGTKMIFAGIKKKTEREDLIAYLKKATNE

Turning to `CC(=O)C(C)=O` [2,3-butanedione], the “net tryptic digestion of H.S.A. after chemical modification” value on H.S.A. [1] was “digestion is effected by chemical modification”.

As for `[Cl-].[Cl-].[Mg+2]` [MgCl], the “percent crosslinking of H.S.A. with glutaraldehyde” value (shortened to “percent crosslinking”) on H.S.A. [2] is on record as “increasing percent crosslinking”. Take `[Cl-].[Na+]` [NaCl]: at H.S.A. [2], the “percent crosslinking” value is listed as “increasing percent crosslinking”. Same read-out and setting: in the case of `NC(N)=O` [Urea] it was “increasing percent crosslinking”. For the molecule `[Ca+2].[Cl-].[Cl-]` [calcium chloride], the “binding detection of calcium to CAM with surrogate probe” value on Calmodulin (CAM) (100 μM ANS hydrophobic probe present) is reported as “binding event”. For the same molecule, the “direct bind detection of calcium to CAM” value on Calmodulin (CAM) (CAM in 1×PBS without probe, relative to blocked wells) is recorded as “no binding data”. `O=C(O)c1ccc(-c2c3nc(c(-c4ccc(C(=O)O)cc4)c4ccc([nH]4)c(-c4ccc(C(=O)O)cc4)c4nc(c(-c5ccc(C(=O)O)cc5)c5ccc2[nH]5)C=C4)C=C3)cc1.[Cu+2]` [copper (II) tetra-(4-carboxyphenyl)porphyrin]: the “trypsin digestion of cytochrome C with degrading catalyst” value on equine cytochrome C was “significant enhancement of digestion”. For the molecule `O=CCCCC=O` [glutaraldehyde], the “proteolytic (trypsin) digestion of H.S.A. after chemical crosslinking” value at H.S.A. [3] was “dramatically inhibited/attenuated”. As for `N=C(N)N` [guanidine HCL], the “percent crosslinking” value on H.S.A. [2] was “increasing percent crosslinking”. With `CC(=O)CC(c1ccccc1)c1c(O)c2ccccc2oc1=O` (centres unmarked) [warfarin], the “reduction in trypsin digestion rate, BZIP plus warfarin” value in the experiment with trypsin [4] is given as “no such reduction in digestion rate was observed”. Also, in the experiment on rabbit IgG, the “reduction in trypsin digestion rate, rabbit IgG plus warfarin” value was “no such reduction in digestion rate was observed”.

As to “acetylated BSA: acetylated bovine serum albumin immobilized on the biosensor”, in the experiment with trypsin or chymotrypsin, the “digestion profile of immobilized albumin” value was “dramatic enhanced digestion profile”. As to heme, the “reduction in digestion of apomyoglobin caused by heme insertion” value with trypsin [5] (15 units of trypsin) worked out at 140 picometer. “methylated BSA: methylated bovine serum albumin immobilized on the biosensor”: the “digestion profile of immobilized albumin” value in the experiment on trypsin or chymotrypsin is “dramatic reduction in digestion rates”.

B1: myoglobin: native horse myoglobin (protein, UniProt P68082 2-154, looked up)
Myoglobin: GLSDGEWQQVLNVWGKVEADIAGHGQEVLIRLFTGHPETLEKFDKFKHLKTEAEMKASEDLKKHGTVVLTALGGILKKKGHHEAELKPLAQSHATKHKIPIKYLEFISDAIIHVLHSKHPGDFGADAQGAMTKALELFRNDIAAKYKELGFQG
Regarding B1, the “trypsin digestion (refractive index change)” value in the experiment on trypsin [5] was −250 pm.

B2: apomyoglobin with heme: apomyoglobin after heme insertion with 2 μM hemin (protein, UniProt P68082 2-154, looked up)
Myoglobin: B1 Myoglobin
modifications: heme reconstituted
notes: apomyoglobin after heme insertion with 2 μM hemin
B2: the “trypsin digestion (refractive index change)” value with trypsin [5] is −350 pm.

B3: apomyoglobin: horse apomyoglobin made by acid-acetone heme removal (protein, UniProt P68082 2-154, looked up)
Myoglobin: B1 Myoglobin
modifications: heme removed
notes: horse apomyoglobin made by acid-acetone heme removal
Consider B3, for which the “trypsin digestion (refractive index change)” value in the experiment on trypsin [5] was −500 pm.
